Laboratory results from patent US4550115A, “Certain piperidino-lower-alkylene esters of 3-methylflavone-8-carboxylates possessing smooth muscle relaxant activity” (Recordati S.A., Chemical & Pharmaceutical Company, priority 1981, dated 1985).
Counter-ions that a name gives are not always drawn. Like-named read-outs stand apart in the source and are kept apart here.

Columns and labels:
[1] = test system: guinea pig depolarized taenia coli; assay: Calcium blocking activity on guinea pig depolarized taenia coli (Ferrari and Carpenedo); conditions: Cavia porcellus; cumulative CaCl2, K+-depolarized guinea pig taenia coli; read-out: Calcium blocking activity ED50
Method: The calcium blocking activity was tested on guinea pig depolarized taenia coli, according to the method described by Ferrari and Carpenedo [Arch. Int. Pharmacodyn., 174, 223 (1968)]. The guinea pig taenia coli was allowed to stabilize in Tyrode solution without Ca^++. It was then washed with K2 SO4 Ringer solution and afterwards perfused with KNO3 Ringer. Cumulative concentrations of CaCl2 were added to the organ bath in absence or presence of the test drug.

guinea pig ileum = assay: Antispastic or antispasmodic activity, BaCl2-induced contraction of guinea pig ileum (Magnus method); conditions: Cavia porcellus, 1 min, read-out: ED50 (antispastic or antispasmodic activity)
Method: The antispastic or antispasmodic activity was evaluated following the Magnus method [Pflugers Arch. […] Two equal contractions were induced by BaCl2 at a concentration ranging between 1 and 4.10^-4 M in guinea pig ileum maintained at 30° C. in Ringer solution and aerated with Carbogen.
The test drug was administered and, one minute later, BaCl2 in the same concentration. The inhibition of the contraction was observed.

[2] = test system: guinea pig isolated ureter; assay: Antispastic activity, spontaneous mobility of guinea pig isolated ureter (Trendelemburg method); conditions: Cavia porcellus
Method: The smooth muscle relaxant activity of the novel flavone derivatives was also measured through the spontaneous mobility of guinea pig isolated ureter. […] The ureter was allowed to stabilize in Tyrode solution with the upper part closed and the inner part connected to a pressure transducer. The test drugs were given cumulatively and the spontaneous circular and longitudinal contractions of the ureter were measured.

in vivo = conditions: mouse
physchem = conditions: phosphate buffer, pH 7.4
Method: Such stability was measured at 37° C. in simulated gastric fluid (U.S. Pat. No. XX, 1105, 1980) and in phosphate buffer (pH 7.4) by spectrodensitometric determination of 3-methylflavone-8-carboxylic acid resulting from eventual hydrolysis.

[3] = guinea pig ileum, 30° C., BaCl2 1 to 4.10^-4 M, drug one minute before BaCl2, inhibition of contraction
[4] = circular contractions, cumulative dosing, read-out: Antispastic Activity Isolated Ureter ED50, circular contractions
[5] = longitudinal contractions, cumulative dosing, read-out: Antispastic Activity Isolated Ureter ED50, longitudinal contractions

`Cc1c(-c2ccccc2)oc2c(C(=O)O[C@@H]3CCCC[C@@H]3N3CCCCC3)cccc2c1=O.Cl` (relative stereo) [Active compound 8, cis-2-piperidino-cyclohexyl 3-methyl-flavone-8-carboxylate hydrochloride] showed an IC50 [1] of 7.3 µM, an IC50 (guinea pig ileum; [3]) of 2.7 µM and an IC50 [2, 4] of 5 µM. For the same compound, the IC50 [2, 5] was 2.5 µM, the LD50 (in vivo; po) was 2160 µmol/kg and the remaining at 1 h (physchem) was 85%. For the same compound, the remaining at 3 h (physchem) was 70%.

Compound `Cc1c(-c2ccccc2)oc2c(C(=O)O[C@@H]3CCCC[C@H]3N3CCCCC3)cccc2c1=O` (relative stereo) [Active compound 14] has an IC50 (guinea pig ileum; [3]) of 7.7 µM.

`Cc1c(-c2ccccc2)oc2c(C(=O)OCCCN3CCCCC3C)cccc2c1=O` (centres unmarked) [Active compound 1, 3-(2-methyl-N-piperidino)-propyl 3-methylflavone-8-carboxylate hydrochloride] gave an IC50 [1] of 24 µM, an IC50 (guinea pig ileum; [3]) of 4 µM and an IC50 [2, 4] of 8.5 µM. It also gave an IC50 [2, 5] of 6.9 µM, an LD50 (in vivo; ip) of 560 µmol/kg and an LD50 (in vivo; po) of 1860 µmol/kg. It also gave a remaining at 1 h (physchem) of 100% and a remaining at 3 h (physchem) of 100%.

Work on `Cc1c(-c2ccccc2)oc2c(C(=O)OC(C)CCN3CCCCC3)cccc2c1=O` (centres unmarked) [Active compound 2, 1-methyl-3-(N-piperidino)propyl] yielded an IC50 [1] of 16 µM, an IC50 (guinea pig ileum; [3]) of 6.2 µM and an LD50 (in vivo; ip) of 160 µmol/kg. For the same compound, the LD50 (in vivo; po) was 690 µmol/kg, the remaining at 1 h (physchem) was 100% and the remaining at 3 h (physchem) was 100%.

`Cc1c(-c2ccccc2)oc2c(C(=O)OC(C)CN3CCCCC3)cccc2c1=O` (centres unmarked) [Active compound 3, 1-methyl-piperidino-ethyl] gave an IC50 [1] of 19 µM, an IC50 (guinea pig ileum; [3]) of 9.7 µM and an LD50 (in vivo; ip) of 500 µmol/kg. It also gave an LD50 (in vivo; po) of 850 µmol/kg, a remaining at 1 h (physchem) of 40% and a remaining at 3 h (physchem) of 30%.

Compound `Cc1c(-c2ccccc2)oc2c(C(=O)OC(CN3CCCCC3)c3ccccc3)cccc2c1=O` (centres unmarked) [Active compound 4, 1-phenyl-2-piperidino-ethyl] has an IC50 (guinea pig ileum; [3]) of 6.7 µM, a remaining at 1 h (physchem) of 68% and a remaining at 3 h (physchem) of 34%.

For `Cc1c(-c2ccccc2)oc2c(C(=O)OC(C)(C)CN3CCCCC3)cccc2c1=O` [Active compound 5, 1,1-dimethyl-2-(N-piperidino)ethyl-3-methylflavone-8-carboxylate], the IC50 [1] was 8.6 µM, the IC50 (guinea pig ileum; [3]) was 2.4 µM and the IC50 [2, 4] was 12 µM. It also gave an IC50 [2, 5] of 2.8 µM, a remaining at 1 h (physchem) of 96% and a remaining at 3 h (physchem) of 91%.

With `Cc1c(-c2ccccc2)oc2c(C(=O)OC(C)(C)CN3CCCCC3C)cccc2c1=O` (centres unmarked) [Active compound 6] the IC50 [1] was 7.5 µM, the IC50 (guinea pig ileum; [3]) was 3.4 µM and the IC50 [2, 4] was 5.3 µM. It also gave an IC50 [2, 5] of 2.5 µM, a remaining at 1 h (physchem) of 100% and a remaining at 3 h (physchem) of 100%.

In the case of `Cc1c(-c2ccccc2)oc2c(C(=O)OCC(O)CN3CCCCC3)cccc2c1=O` (centres unmarked) [Active compound 7, 2-hydroxy-3-(N-piperidino)propyl 3-methylflavone-8-carboxylate], the LD50 (in vivo; ip) is reported as 580 µmol/kg, the LD50 (in vivo; po) is reported as 3100 µmol/kg and the remaining at 1 h (physchem) is reported as 44%. The remaining at 3 h (physchem) was 25%.

`Cc1c(-c2ccccc2)oc2c(C(=O)OC3CCCCC3CN3CCCCC3)cccc2c1=O` (centres unmarked) [Active compound 9, 2-piperidinomethyl cyclohexyl] showed an IC50 [1] of 26 µM, an IC50 (guinea pig ileum; [3]) of 4 µM and an LD50 (in vivo; ip) of 190 µmol/kg. For the same compound, the LD50 (in vivo; po) was 1080 µmol/kg, the remaining at 1 h (physchem) was 88% and the remaining at 3 h (physchem) was 87%.

Compound `Cc1c(-c2ccccc2)oc2c(C(=O)OC3CCN(C)CC3)cccc2c1=O` [Active compound 10, 1-methyl-4-piperidinyl] has an LD50 (in vivo; ip) of 150 µmol/kg, an LD50 (in vivo; po) of 850 µmol/kg and a remaining at 1 h (physchem) of 100%. For the same compound, the remaining at 3 h (physchem) was 100%.

Compound `Cc1c(-c2ccccc2)oc2c(C(=O)OC3CCCN(C)C3)cccc2c1=O.Cl` (centres unmarked) [Active compound 11, N-methyl-3-piperidyl 3-methylflavone-8-carboxylate hydrochloride] has an LD50 (in vivo; ip) of 360 µmol/kg, an LD50 (in vivo; po) of 770 µmol/kg and a remaining at 1 h (physchem) of 100%. The remaining at 3 h (physchem) was 100%.

`Cc1c(-c2ccccc2)oc2c(C(=O)OC3CC4CCC(C3)N4C)cccc2c1=O` (centres unmarked) [Active compound 12, 3-tropinyl-3-methylflavone-8-carboxylate] showed an IC50 (guinea pig ileum) of 4.3 µM, an IC50 ([2]; read-out: Antispastic Activity Isolated Ureter ED50, circular contractions) of 20 µM and an IC50 ([2]; read-out: Antispastic Activity Isolated Ureter ED50, longitudinal contractions) of 9 µM. For the same compound, the LD50 (in vivo; ip) was 420 µmol/kg, the LD50 (in vivo; po) was 950 µmol/kg and the remaining at 1 h (physchem) was 100%. It also gave a remaining at 3 h (physchem) of 100%.

Compound `Cc1c(-c2ccccc2)oc2c(C(=O)OCCN3CCCCC3)cccc2c1=O` [FLAVOXATE, 2-(N-piperidino)ethyl 3-methylflavone-8-carboxylate hydrochloride, reference compound] has an IC50 [1] of 25 µM, an IC50 (guinea pig ileum; [3]) of 5.6 µM and an LD50 (in vivo; ip) of 900 µmol/kg. The LD50 (in vivo; po) was 1890 µmol/kg, the remaining at 1 h (physchem) was 22% and the remaining at 3 h (physchem) was 10%.
